Like-named read-outs stand apart in the source and are kept apart here.
What was measured:
Format in all cases: in vivo
[1] = system: Amaranthus retroflexus (AMARE); assay: Pre-emergence herbicidal action against AMARE; conditions: visual scoring after about 3 weeks vs untreated controls
Procedure, shortened: (§1)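 Pre-emergence soil-surface spray, WP/EC formulation, 0.5% additive, 600 l/ha water, rates of 320 g/ha or lower. Greenhouse, ~3 wk. Visual score, % of untreated control (100% = plants dead, 0% = like control).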

[2] = system: Polygonum convolvulus (POLCO); assay: Pre-emergence herbicidal action against POLCO
Procedure, shortened: as §1

Viola tricolor (VIOTR) [3] = assay: Pre-emergence herbicidal action against VIOTR
Procedure, shortened: as §1

Zea mays (ZEAMX) [4] = conditions: pre-emergence, 80 g/ha, crop plant compatibility, in comparison to untreated controls
Procedure, shortened: (§2)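 Crop injury rated visually in percent against untreated plants roughly 3 weeks after treatment (0% no effect, 100% plants dead). Compounds, as WP or EC with 0.5% additive in 600 l/ha water, were applied to the covering soil right after sowing; greenhouse growth. Suffixes a, b, c denote different dosages.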

Oryza sativa (ORYSA) [5] = conditions: pre-emergence, 80 g/ha, crop plant compatibility, in comparison to untreated controls
Procedure, shortened: as §2

[6] = system: Abutilon theophrasti (ABUTH); assay: Pre-emergence herbicidal action against ABUTH; conditions: Dosage column 320 g/ha (title prints 3200 g/ha); scored visually after about 3 weeks; 100% = plants have died
Procedure, shortened: as §1

[7] = system: Polygonum convolvulus (POLCO); assay: Post-emergence herbicidal action against POLCO
Procedure, shortened: (§3)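 Greenhouse plants sprayed at the one-leaf stage, 2–3 weeks after sowing, with WP or EC formulations plus 0.5% additive at 600 l/ha water. Activity rated visually after about 3 weeks versus untreated controls (100% = dead, 0% = like control), at 320 g/ha or lower.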

[8] = system: Triticum aestivum (TRZAS); conditions: crop plant compatibility, effect vs untreated controls
Procedure, shortened: (§4)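 Visual rating (% effect vs. untreated plants; 100% = plant death) made about 3 weeks after treatment. Plants had been sprayed at one-leaf stage, 2–3 weeks post-sowing, with aqueous WP/EC preparations containing 0.5% additive, 600 l/ha water volume; a, b, c mark dose levels.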

Oryza sativa (ORYSA) [9] = conditions: crop plant compatibility, effect in comparison to untreated controls
Procedure, shortened: as §4

[10] = system: Alopecurus myosuroides (ALOMY); assay: Post-emergence herbicidal action against ALOMY; conditions: 320 g/ha, visual rating about 3 weeks after treatment vs untreated controls (100% = plants have died, 0% = like control plants)
Procedure, shortened: as §3

[11] = system: Echinochloa crus-galli (ECHCG); assay: Post-emergence herbicidal action against ECHCG
Procedure, shortened: as §3

Avena fatua (AVEFA) [12] = assay: Pre-emergence herbicidal action against AVEFA; conditions: 320 g/ha, visual scoring after about 3 weeks vs untreated controls
Procedure, shortened: as §1

[13] = system: Echinochloa crus-galli (ECHCG); assay: Pre-emergence herbicidal action against ECHCG; conditions: dosage 320 g/ha
Procedure, shortened: as §1

Lolium rigidum (LOLRI) [14] = assay: Pre-emergence herbicidal action against LOLRI; conditions: dosage 320 g/ha
Procedure, shortened: as §1

[15] = system: Alopecurus myosuroides (ALOMY); assay: Pre-emergence herbicidal action against ALOMY; conditions: 320 g/ha; scored visually after about 3 weeks; 100% = plants have died
Procedure, shortened: as §1

[16] = system: Verconica persica (VERPE); assay: Pre-emergence herbicidal action against VERPE; conditions: dosage 320 g/ha
Procedure, shortened: as §1

Setaria viridis (SETVI) [17] = assay: Pre-emergence herbicidal action against SETVI
Procedure, shortened: as §1

[18] = system: Matricaria inodora (MATIN); assay: Pre-emergence herbicidal action against MATIN
Procedure, shortened: as §1

[19] = system: Amaranthus retroflexus (AMARE); assay: Post-emergence herbicidal action against AMARE
Procedure, shortened: as §3

[20] = system: Triticum aestivum (TRZAS); conditions: pre-emergence, 80 g/ha, crop plant compatibility, in comparison to untreated controls
Procedure, shortened: as §2

Zea mays (ZEAMX) [21] = conditions: crop plant compatibility, 80 g/ha, effect vs untreated controls
Procedure, shortened: as §4

[22] = system: Pharbitis purpurea (PHBPU); assay: Post-emergence herbicidal action against PHBPU; conditions: dosage 320 g/ha
Procedure, shortened: as §3

[23] = system: Verconica persica (VERPE); assay: Post-emergence herbicidal action against VERPE
Procedure, shortened: as §3

[24] = system: Pharbitis purpurea (PHBPU); assay: Pre-emergence herbicidal action against PHBPU
Procedure, shortened: as §1

Setaria viridis (SETVI) [25] = assay: Post-emergence herbicidal action against SETVI
Procedure, shortened: as §3

[26] = system: Matricaria inodora (MATIN); assay: Post-emergence herbicidal action against MATIN; conditions: dosage 320 g/ha
Procedure, shortened: as §3

[27] = system: Abutilon theophrasti (ABUTH); assay: Post-emergence herbicidal action against ABUTH; conditions: visual rating about 3 weeks after treatment vs untreated controls (100% = plants have died, 0% = like control plants)
Procedure, shortened: as §3

Lolium rigidum (LOLRI) [28] = assay: Post-emergence herbicidal action against LOLRI; conditions: dosage 320 g/ha
Procedure, shortened: as §3

Viola tricolor (VIOTR) [29] = assay: Post-emergence herbicidal action against VIOTR
Procedure, shortened: as §3

Avena fatua (AVEFA) [30] = assay: Post-emergence herbicidal action against AVEFA; conditions: 320 g/ha, visual rating about 3 weeks after treatment
Procedure, shortened: as §3

[31] = 80 g/ha, visual rating about 3 weeks after treatment vs untreated controls (100% = plants have died, 0% = like control plants)
[32] = 320 g/ha, visual rating about 3 weeks after treatment

| SMILES | Pre-emergence action against AMARE in % ([1]; 80 g/ha) | Pre-emergence action against AMARE in % ([1]; 320 g/ha) | Pre-emergence action against POLCO in % ([2]; dosage 320 g/ha) | Pre-emergence action against VIOTR in % (Viola tricolor (VIOTR) [3]; 320 g/ha, Viola tricolor) | Pre-emergence action against VIOTR in % (Viola tricolor (VIOTR) [3]; dosage 80 g/ha) | Pre-emergence action against ZEAMX in % (Zea mays (ZEAMX) [4]) | Post-emergence action against POLCO in % ([7]; dosage 320 g/ha) | Post-emergence action against TRZAS in % ([8]; 80 g/ha) | Post-emergence action against ORYSA in % (Oryza sativa (ORYSA) [9]; 80 g/ha) | Post-emergence action against ECHCG in % ([11]; dosage 320 g/ha) | Pre-emergence action against ECHCG in % [13] | Pre-emergence action against LOLRI in % (Lolium rigidum (LOLRI) [14]) | Pre-emergence action against SETVI in % (Setaria viridis (SETVI) [17]; dosage 320 g/ha) | Pre-emergence action against MATIN in % ([18]; dosage 320 g/ha) | Post-emergence action against AMARE in % [19, 31] | Post-emergence action against AMARE in % [19, 32] | Pre-emergence action against TRZAS in % [20] | Post-emergence action against VERPE in % ([23]; 320 g/ha, VERPE) | Pre-emergence action against PHBPU in % ([24]; dosage 320 g/ha) | Post-emergence action against SETVI in % (Setaria viridis (SETVI) [25]; dosage 320 g/ha) | further results |
| --- | --- | --- | --- | --- | --- | --- | --- | --- | --- | --- | --- | --- | --- | --- | --- | --- | --- | --- | --- | --- | --- |
| O=C(O)C1CCCN1C(=O)COc1nn(-c2ccccn2)c(-c2ccc(F)nc2)c1Br (centres unmarked) [Example I-111] | 90% | 100% | 100% | 100% | 80% | 0% | 80% | 0% | 0% | 90% | 100% | 100% | 100% | 80% | 80% | 90% |  |  |  |  | Pre-emergence action against POLCO in % ([2]; dosage 80 g/ha): 80%; Pre-emergence action against ORYSA in % (Oryza sativa (ORYSA) [5]): 0%; Pre-emergence action against ABUTH [6]: 80%; Post-emergence action against ORYSA in % (Oryza sativa (ORYSA) [9]; 320 g/ha): 0%; Post-emergence action against ALOMY in % [10]: 100%; Pre-emergence action against AVEFA in % (Avena fatua (AVEFA) [12]): 80%; Pre-emergence action against ALOMY [15]: 90%; Pre-emergence action against VERPE in % [16]: 90%; Pre-emergence action against SETVI in % (Setaria viridis (SETVI) [17]; dosage 80 g/ha): 90% |
| COCCOC(=O)COc1nn(-c2cccc(C)n2)c(-c2ccc(F)nc2)c1Br [Example I-277] |  | 80% |  |  |  |  |  | 0% | 10% | 80% | 80% | 90% | 80% |  |  |  | 0% | 80% | 80% |  | Post-emergence action against TRZAS in % ([8]; 320 g/ha): 20%; Post-emergence action against ZEAMX in % (Zea mays (ZEAMX) [21]): 10%; Post-emergence action against PHBPU in % [22]: 80% |
| O=C(O)CSc1nn(-c2ccccn2)c(-c2cncc(F)c2)c1Cl [Example I-217] | 80% | 100% | 80% | 90% |  |  | 80% |  | 0% | 90% | 90% | 100% | 90% | 90% | 90% | 90% | 0% |  | 90% | 90% | Post-emergence action against SETVI in % (Setaria viridis (SETVI) [25]; dosage 80 g/ha): 80%; Post-emergence action against POLCO in % ([7]; dosage 80 g/ha): 80%; Post-emergence action against MATIN in % [26]: 80%; Post-emergence action against ECHCG in % ([11]; dosage 80 g/ha): 90%; Post-emergence action against ABUTH in % ([27]; 80 g/ha): 80%; Post-emergence action against ABUTH in % ([27]; 320 g/ha): 90%; Post-emergence action against LOLRI in % (Lolium rigidum (LOLRI) [28]): 80%; Post-emergence action against VIOTR in % (Viola tricolor (VIOTR) [29]; 80 g/ha): 80%; Post-emergence action against VIOTR in % (Viola tricolor (VIOTR) [29]; 320 g/ha): 90%; Post-emergence action against AVEFA in % (Avena fatua (AVEFA) [30]): 90%; Pre-emergence action against MATIN in % ([18]; dosage 80 g/ha): 80% |
| COC(=O)CCOC(=O)COc1nn(-c2ncccc2C(F)(F)F)c(-c2cncc(F)c2)c1Br [Example I-160] |  | 80% | 90% | 100% | 90% |  |  | 20% | 0% |  | 90% |  |  | 80% |  |  | 20% | 90% | 90% | 80% | Post-emergence action against PHBPU in % [22]: 90%; Post-emergence action against VERPE in % ([23]; dosage 80 g/ha): 80%; Pre-emergence action against PHBPU in % ([24]; dosage 80 g/ha): 80%; Pre-emergence action against VERPE in % [16]: 90% |
| O=C(O)COc1nn(-c2ncccc2C(F)(F)F)c(-c2ccc(F)nc2)c1Br [Example I-310] | 80% | 100% | 90% | 100% | 90% | 0% | 80% |  | 10% | 90% |  | 100% |  |  | 80% | 80% |  | 80% |  | 90% | Pre-emergence action against ORYSA in % (Oryza sativa (ORYSA) [5]): 0%; Pre-emergence action against ABUTH [6]: 80%; Post-emergence action against POLCO in % ([7]; dosage 80 g/ha): 80%; Post-emergence action against ZEAMX in % (Zea mays (ZEAMX) [21]): 0%; Post-emergence action against ORYSA in % (Oryza sativa (ORYSA) [9]; 320 g/ha): 20%; Post-emergence action against ALOMY in % [10]: 90%; Pre-emergence action against AVEFA in % (Avena fatua (AVEFA) [12]): 90%; Pre-emergence action against ALOMY [15]: 100%; Post-emergence action against LOLRI in % (Lolium rigidum (LOLRI) [28]): 90%; Post-emergence action against VIOTR in % (Viola tricolor (VIOTR) [29]; 80 g/ha): 80%; Post-emergence action against VIOTR in % (Viola tricolor (VIOTR) [29]; 320 g/ha): 90%; Post-emergence action against AVEFA in % (Avena fatua (AVEFA) [30]): 100% |

Source: US20240041042A1, “1-(PYRIDYL)-5-AZINYLPYRAZOLE DERIVATIVES, AND THEIR USE FOR CONTROL OF UNDESIRED PLANT GROWTH” (Bayer Aktiengesellschaft, priority 2020, published 2024)
